Results: article PMC5971061, “Differential Effects of Linkers on the Activity of Amphiphilic Tobramycin Antifungals” (Molecules : A Journal of Synthetic Chemistry and Natural …, 2018)
In brackets after ≈: the same amount, converted by molar mass. Each block holds one compound with its values, some of them ahead of it.

Assays:
[1] = test system: C. albicans ATCC 10231 (strain A); test: MIC, broth microdilution (CLSI M27-A3), yeast strain A; assay type: cell-based, Candida albicans
Description: (§1) The final concentrations of compounds 3, 4, 7a, 7b, 9, and 16, as well as that of TOB tested in this study ranged from 0.24–62.5 μg/mL. CAS was used as a positive control and the final concentrations tested for CAS ranged from 0.03–31.3 μg/mL. Briefly, overnight yeast cultures were grown in yeast peptone dextrose (YPD) broth and the cell density was adjusted to an OD600 of 0.12 (~1 × 10^6 CFU/mL) by using a spectrophotometer. Yeast cell suspensions were further diluted to achieve 1–5 × 10^3 CFU/mL in RPMI 1640 medium, and 100 μL of these yeast cells was added to 96-well microtiter plates containing RPMI 1640 medium and titrated compounds. Each test was performed in triplicate. The plates were incubated at 35 °C for 48 h.

[2] = test system: C. albicans ATCC 10231 (strain A); test: Time-kill assay, strain A; assay type: cell-based, Candida albicans
Description: (§2) Time-kill assays were used to assess the inhibitory efficiency of 7b against three yeast strains, C. albicans ATCC 10231 (strain A), C. parapsilosis ATCC 22019 (strain J), and C. neoformans clinical isolate CN1. The protocol for time-kill assays followed methods previously described with minor modifications. Yeast cultures were grown overnight in YPD broth at 35 °C with shaking (200 rpm). A working stock of fungal cells was made by diluting cultures in RPMI 1640 medium to an OD600 of 0.125, approximately 1 × 10^6 CFU/mL. From the working stock, 100 μL of cells was added to 4.9 mL of RPMI 1640 medium in sterile culture tubes, making the starting fungal cell concentration […]. Compounds were then added to the fungal cells. The treatment conditions included sterile control, growth control, TOB (parent; negative control), voriconazole (VOR) at 1× MIC (positive control), 7b at 1× and 4× MIC. The treated fungal cultures were incubated at 35 °C with shaking (200 rpm) for 24 h. The samples were taken from the different treatments at regular time points (0, 3, 6, 9, 12, and 24 h.) and plated in duplicates. For each time point, cultures were vortexed, 100 μL of culture was aspirated, and 10-fold serial dilutions were made in sterile ddH2O. From the appropriate dilutions, 100 μL of fungal suspension was spread on PDA plates and incubated at 35 °C for 48 h before the colony counts were determined. At 24 h, 50 μL of 1 mM resazurin was added to the treatments and incubated at 35 °C with rotation for 2 h in the dark for visual inspection. Experiments were performed in duplicate.

[3] = test system: C. neoformans (strain CN1); test: Time-kill assay, CN1; assay type: cell-based, Cryptococcus neoformans; conditions: controls TOB 15.6 μg/mL and VOR 1× MIC, 24-h period
Description: as §2

[4] = test system: C. albicans ATCC MYA-1003(R) (strain G); test: MIC, broth microdilution (CLSI M27-A3), yeast strain G; assay type: cell-based; conditions: Candida albicans; MIC-0, strain G, 35 °C 48 h
Description: as §1

[5] = test system: Aspergillus terreus ATCC MYA-3633 (strain M); test: MIC, filamentous fungi (CLSI M38-A2), strain M; assay type: cell-based; conditions: MIC-0, strain M, 35 °C 72 h
Description: (§3) The spores were harvested from sporulating cultures growing on potato dextrose agar (PDA) by filtration through sterile glass wool and enumerated by using a hemocytometer (Hausser Scientific, Horsham, PA, USA) to obtain the desired inoculum size. Two-fold serial dilutions of compounds 3, 4, 7a, 7b, 9, and 16, as well as CAS and TOB were made in sterile 96-well microtiter plates to obtain the final concentration range of 0.24–62.5 μg/mL for TOB and TOB derivatives as well as 0.03–31.3 μg/mL for CAS in the RPMI 1640 medium. The spore suspensions were added to the wells to afford a final concentration of 5 × 10^5 spores/mL. The plates were incubated at 35 °C for 72 h. […] Each test was performed in triplicate.

[6] = test system: Candida parapsilosis clinical isolate CP3; test: MIC, broth microdilution (CLSI M27-A3), CP3; assay type: cell-based; conditions: MIC-0, CP3, 35 °C 48 h
Description: as §1

[7] = test system: C. albicans ATCC 64124 (strain B); test: MIC, broth microdilution (CLSI M27-A3), yeast strain B; assay type: cell-based; conditions: Candida albicans, ATCC64124; MIC-0, strain B, 35 °C 48 h
Description: as §1

[8] = test system: C. albicans ATCC MYA-2876(S) (strain C); test: MIC, broth microdilution (CLSI M27-A3), yeast strain C; assay type: cell-based; conditions: Candida albicans; MIC-0, strain C, 35 °C 48 h
Description: as §1

[9] = test system: C. albicans ATCC MYA-1237(R) (strain F); test: MIC, broth microdilution (CLSI M27-A3), yeast strain F; assay type: cell-based; conditions: Candida albicans; MIC-0, strain F, 35 °C 48 h
Description: as §1

[10] = test system: Aspergillus flavus ATCC MYA-3631 (strain K); test: MIC, filamentous fungi (CLSI M38-A2), strain K; assay type: cell-based; conditions: Aspergillus flavus, 72 h, MIC-0, strain K, 35 °C 72 h; read-out: MIC
Description: as §3

[11] = test system: Candida glabrata clinical isolate CG3; test: MIC, broth microdilution (CLSI M27-A3), CG3; assay type: cell-based; conditions: Nakaseomyces glabratus; MIC-0, CG3, 35 °C 48 h
Description: as §1

[12] = test system: Cryptococcus neoformans clinical isolate CN3; test: MIC, broth microdilution (CLSI M27-A3), CN3; assay type: cell-based; conditions: MIC-0, CN3, 35 °C 48 h
Description: as §1

[13] = test system: Candida glabrata clinical isolate CG1; test: MIC, broth microdilution (CLSI M27-A3), CG1; assay type: cell-based; conditions: Nakaseomyces glabratus; MIC-0, CG1, 35 °C 48 h
Description: as §1

[14] = test system: Candida parapsilosis clinical isolate CP1; test: MIC, broth microdilution (CLSI M27-A3), CP1; assay type: cell-based; conditions: Lodderomyces parapsilosis; MIC-0, CP1, 35 °C 48 h
Description: as §1

[15] = test system: C. albicans ATCC 90819(R) (strain D); test: MIC, broth microdilution (CLSI M27-A3), yeast strain D; assay type: cell-based; conditions: Candida albicans, ATCC90819; MIC-0, strain D, 35 °C 48 h
Description: as §1

[16] = test system: Candida glabrata ATCC 2001 (strain H); test: MIC, broth microdilution (CLSI M27-A3), yeast strain H; assay type: cell-based; conditions: Nakaseomyces glabratus, ATCC2001; MIC-0, strain H, 35 °C 48 h
Description: as §1

[17] = test system: C. neoformans clinical isolates CN1-3; test: MIC across C. neoformans clinical isolates CN1-3; assay type: cell-based, Cryptococcus neoformans
Description: as §1

[18] = test system: Candida parapsilosis ATCC 22019 (strain J); test: MIC, broth microdilution (CLSI M27-A3), yeast strain J; assay type: cell-based; conditions: Lodderomyces parapsilosis, ATCC22019; MIC-0, strain J, 35 °C 48 h
Description: as §1

[19] = test system: Cryptococcus neoformans clinical isolate CN2; test: MIC, broth microdilution (CLSI M27-A3), CN2; assay type: cell-based; conditions: MIC-0, CN2, 35 °C 48 h
Description: as §1

[20] = test system: Cryptococcus neoformans clinical isolate CN1; test: MIC, broth microdilution (CLSI M27-A3), CN1; assay type: cell-based; conditions: MIC-0, CN1, 35 °C 48 h
Description: as §1

[21] = test system: Candida parapsilosis clinical isolate CP2; test: MIC, broth microdilution (CLSI M27-A3), CP2; assay type: cell-based; conditions: Lodderomyces parapsilosis; MIC-0, CP2, 35 °C 48 h
Description: as §1

[22] = test system: Candida krusei ATCC 6258 (strain I); test: MIC, broth microdilution (CLSI M27-A3), yeast strain I; assay type: cell-based; conditions: Pichia kudriavzevii, ATCC6258; MIC-0, strain I, 35 °C 48 h
Description: as §1

[23] = test system: Candida glabrata clinical isolate CG2; test: MIC, broth microdilution (CLSI M27-A3), CG2; assay type: cell-based; conditions: Nakaseomyces glabratus; MIC-0, CG2, 35 °C 48 h
Description: as §1

[24] = test system: Aspergillus nidulans ATCC 38163 (strain L); test: MIC, filamentous fungi (CLSI M38-A2), strain L; assay type: cell-based; conditions: Aspergillus nidulans, ATCC38163, 72 h, MIC-0, strain L, 35 °C 72 h; read-out: MIC
Description: as §3

[25] = test system: C. albicans ATCC MYA-2310(S) (strain E); test: MIC, broth microdilution (CLSI M27-A3), yeast strain E; assay type: cell-based; conditions: Candida albicans; MIC-0, strain E, 35 °C 48 h
Description: as §1

Structure (SMILES): C[C@@H](c1ncncc1F)[C@](O)(Cn1cncn1)c1ccc(F)cc1F [VOR, voriconazole, reference compound]
1× MIC value ([1]; as used in the time-kill study, strain A): 1.0 µg/mL
reduction of CFU ([2]; 1× MIC (7b 3.9 μg/mL; VOR 1.0 μg/mL), after 9 h of treatment): ≥ 2 log10
effect on growth (time-kill, in words) ([2]; 24-h period, TOB 15.6 μg/mL, VOR 1× MIC 1.0 μg/mL): maintained a fungistatic activity up to the 24-h period
effect on growth (time-kill, in words) [3]: little to no growth inhibitory effect

MIC [4]: 0.48 µg/mL (≈ 0.439 µM)
MIC [5]: > 31.3 µg/mL
MIC ([1]; Candida albicans, ATCC10231, MIC-0, strain A, 35 °C 48 h): 0.975 µg/mL (≈ 0.892 µM)
MIC [6]: 0.48 µg/mL (≈ 0.439 µM)
MIC [7]: 0.24 µg/mL (≈ 0.22 µM)
MIC [8]: 0.06 µg/mL (≈ 0.0549 µM)
MIC [9]: 0.24 µg/mL (≈ 0.22 µM)
MIC [10]: > 31.3 µg/mL
MIC [11]: 0.975 µg/mL (≈ 0.892 µM)
MIC [12]: 15.6 µg/mL (≈ 14.3 µM)
MIC [13]: 1.95 µg/mL (≈ 1.78 µM)
MIC [14]: 0.48 µg/mL (≈ 0.439 µM)
MIC [15]: 0.12 µg/mL (≈ 0.11 µM)
MIC [16]: 0.06 µg/mL (≈ 0.0549 µM)
MIC values [17]: low to no activity
MIC [18]: 1.95 µg/mL (≈ 1.78 µM)
MIC [19]: 31.3 µg/mL (≈ 28.6 µM)
MIC [20]: 15.6 µg/mL (≈ 14.3 µM)
MIC [21]: 0.48 µg/mL (≈ 0.439 µM)
MIC [22]: 0.48 µg/mL (≈ 0.439 µM)
MIC [23]: 0.24 µg/mL (≈ 0.22 µM)
MIC [24]: > 31.3 µg/mL
MIC [25]: 0.12 µg/mL (≈ 0.11 µM)
Structure (SMILES): CC[C@H](C)C[C@H](C)CCCCCCCCC(=O)N[C@H]1C[C@@H](O)[C@@H](NCCN)NC(=O)[C@@H]2[C@@H](O)CCN2C(=O)[C@H]([C@H](O)CCN)NC(=O)[C@H]([C@H](O)[C@@H](O)c2ccc(O)cc2)NC(=O)[C@@H]2C[C@@H](O)CN2C(=O)[C@H]([C@@H](C)O)NC1=O [CAS, caspofungin, reference compound]
